# Patent publication US9499550B2 (BRISTOL-MYERS SQUIBB COMPANY, priority 2012, dated 2016)
# Where two headings read alike, the source gives them in different places.
# Key:
# [1] = system: HCV genotype 1a (H77 strain) replicon in HUH-7 cells; experiment: HCV replicon luciferase reporter assay, genotype 1a; type: cell-based; conditions: Hepatitis C virus, Huh-7, 72 h, 3 days incubation, read-out: LE_1a (EC50, range)
# How it was run: (§1)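 Replicon inhibition for both genotypes was measured as Renilla luciferase signal (EnduRen, 7.5 μM final, 2 h) after 3-day, 37° C exposure of replicon-bearing HUH-7 cells in 4% FCS DMEM, 0.5% DMSO. The 1b construct carries S1179I; the 1a H77 construct carries P1496L and S2204I. Twenty-point, 3-fold dilutions were fitted four-parametrically for EC50, and CC50 was taken from multiplexed Cell Titer-Blue.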
# [2] = system: HCV genotype 1b (Con1) replicon in HUH-7 cells; experiment: HCV replicon luciferase reporter assay, genotype 1b; type: cell-based; conditions: Hepatitis C virus, Huh-7, 72 h, 3 days incubation, read-out: LE_1b (EC50, range)
# How it was run: as §1
# [3] = HCV genotype 1a replicon luciferase assay, range class
# [4] = HCV genotype 1b replicon luciferase assay, range class
# [5] = HCV genotype 1a replicon luciferase
# [6] = HCV genotype 1b replicon luciferase
# [7] = GETYPE1A, HCV genotype 1a replicon luciferase
# [8] = GETYPE1B, HCV genotype 1b replicon luciferase
compound,measurement,setting,value
"COCCOc1cnc(O[C@@H]2C[C@H]3C(=O)N[C@]4(C(=O)NS(=O)(=O)C5(C)CC5)C[C@H]4/C=C\CC[C@H](C)C[C@@H](C)[C@H](NC(=O)OC(C)(C)C(F)(F)F)C(=O)N3C2)c2ccc(OC)cc12 [Compound 1144, 1,1,1-trifluoro-2-methylpropan-2-yl((2R,6S,7R,9S,13aS,14aR,16aS,Z)-2-((6-methoxy-4-(2-methoxyethoxyl)isoquinolin-1-yl)oxy)-7,9-dimethyl-14a-(((1-methylcyclopropyl)sulfonyl)carbamoyl)-5,16-dioxo-1,2,3,5,6,7,8,9,10,11,13a,14,14a,15,16,16a-hexadecahydrocyclopropa[e]pyrrolo[1,2-a][1,4]diazacyclopentadecin-6-yl)carbamate]",EC50,[1]; [3],< 5.46 nM
same,EC50,[2]; [4],< 5.46 nM
"CC[C@@H]1C[C@H](C)CC/C=C\[C@@H]2C[C@@]2(C(=O)NS(=O)(=O)C2(CF)CC2)NC(=O)[C@@H]2C[C@@H](Oc3nccc4c5c(ccc34)OCCO5)CN2C(=O)[C@H]1NC(=O)OC(C)(C)C(F)(F)F [Compound 5427, 1,1,1-trifluoro-2-methylpropan-2-yl((2R,6S,7R,9R,13aS,14aR,16aS,Z)-2-((2,3-dihydro-[1,4]dioxino[2,3-f]isoquinolin-7-yl)oxy)-7-ethyl-14a-(((1-(fluoromethyl)cyclopropyl)sulfonyl)carbamoyl)-9-methyl-5,16-dioxo-1,2,3,5,6,7,8,9,10,11,13a,14,14a,15,16,16a-hexadecahydrocyclopropa[e]pyrrolo[1,2-a][1,4]diazacyclopentadecin-6-yl)carbamate]",EC50,[1]; [5],5.01 to 35 nM
same,EC50,[2]; [6],5.01 to 35 nM
"CC[C@@H]1C[C@H](C)CC/C=C\[C@@H]2C[C@@]2(C(=O)NS(=O)(=O)C2(C)CC2)NC(=O)[C@@H]2C[C@@H](Oc3nc(OC)cc4cc(OC)ccc34)CN2C(=O)[C@H]1NC(=O)OC(C)(C)C(C)(F)F [Compound 1124, 3,3-difluoro-2-methylbutan-2-yl((2R,6S,7R,9R,13aS,14aR,16aS,Z)-2-((3,6-dimethoxyisoquinolin-1-yl)oxy)-7-ethyl-9-methyl-14a-(((1-methylcyclopropyl)sulfonyl)carbamoyl)-5,16-dioxo-1,2,3,5,6,7,8,9,10,11,13a,14,14a,15,16,16a-hexadecahydrocyclopropa[e]pyrrolo[1,2-a][1,4]diazacyclopentadecin-6-yl)carbamate]",EC50,[1]; [3],< 5.46 nM
same,EC50,[2]; [4],< 5.46 nM
CC[C@@H]1C[C@H](C)CC/C=C\[C@@H]2C[C@@]2(C(=O)NS(=O)(=O)C2CC2)NC(=O)[C@@H]2C[C@@H](Oc3nc4cc(OC)ccc4nc3Cl)CN2C(=O)[C@H]1NC(=O)OC(C)(C)C(F)(F)F [Compound 4271],EC50,[1]; [7],1.01 to 5 nM
same,EC50,[2]; [8],0.1 to 0.5 nM
"COc1cnc(O[C@@H]2C[C@H]3C(=O)N[C@]4(C(=O)NS(=O)(=O)C5(CF)CC5)C[C@H]4/C=C\CC[C@H](C)C[C@@H](C)[C@H](NC(=O)OC4(C(F)(F)F)CCOCC4)C(=O)N3C2)c2ccccc12 [Compound 1047, 4-(trifluoromethyl)tetrahydro-2H-pyran-4-yl((2R,6S,7R,9S,13aS,14aR,16aS,Z)-14a-(((1-(fluoromethyl)cyclopropyl)sulfonyl)carbamoyl)-2-((4-methoxyisoquinolin-1-yl)oxy)-7,9-dimethyl-5,16-dioxo-1,2,3,5,6,7,8,9,10,11,13a,14,14a,15,16,16a-hexadecahydrocyclopropa[e]pyrrolo[1,2-a][1,4]diazacyclopentadecin-6-yl)carbamate]",EC50,[1]; [3],4.82 to 103 nM
same,EC50,[2]; [4],4.82 to 103 nM
"CC(C)Oc1ccc2c(O[C@@H]3C[C@H]4C(=O)N[C@]5(C(=O)NS(=O)(=O)C6CC6)C[C@H]5/C=C\CC[C@H](C)C[C@@H](C)[C@H](NC(=O)OC(C)(C)C(F)(F)F)C(=O)N4C3)nccc2c1 [Compound 5147, 1,1,1-trifluoro-2-methylpropan-2-yl((2R,6S,7R,9S,13aS,14aR,16aS,Z)-14a-((cyclopropylsulfonyl)carbamoyl)-2-((6-isopropoxyisoquinolin-1-yl)oxy)-7,9-dimethyl-5,16-dioxo-1,2,3,5,6,7,8,9,10,11,13a,14,14a,15,16,16a-hexadecahydrocyclopropa[e]pyrrolo[1,2-a][1,4]diazacyclopentadecin-6-yl)carbamate]",EC50,[1]; [5],4.82 to 103 nM
same,EC50,[2]; [6],4.82 to 103 nM
"COc1ccc2c(O[C@@H]3C[C@H]4C(=O)N[C@]5(C(=O)NS(=O)(=O)C6CC6)C[C@H]5/C=C\CC[C@@H](C)C[C@@H](C)[C@H](NC(=O)OC(C)(C)C)C(=O)N4C3)nc(N(C)C)cc2c1 [Compound 3121, tert-butyl ((2R,6S,7R,9R,13aS,14aR,16aS,Z)-14a-((cyclopropylsulfonyl)carbamoyl)-2-((3-(dimethylamino)-6-methoxyisoquinolin-1-yl)oxy)-7,9-dimethyl-5,16-dioxo-1,2,3,5,6,7,8,9,10,11,13a,14,14a,15,16,16a-hexadecahydrocyclopropa[e]pyrrolo[1,2-a][1,4]diazacyclopentadecin-6-yl)carbamate]",EC50,[1]; [3],4.82 to 103 nM
same,EC50,[2]; [4],< 5.46 nM
"COc1ccc2c(O[C@@H]3C[C@H]4C(=O)N[C@]5(C(=O)NS(=O)(=O)C6(CF)CC6)C[C@H]5/C=C\CC[C@@H](C)C[C@@H](C)[C@H](NC(=O)OC(C)(C)C)C(=O)N4C3)ncc(F)c2c1 [Compound 4382, tert-butyl ((2R,6S,7R,9R,13aS,14aR,16aS,Z)-2-((4-fluoro-6-methoxyisoquinolin-1-yl)oxy)-14a-(((1-(fluoromethyl)cyclopropyl)sulfonyl)carbamoyl)-7,9-dimethyl-5,16-dioxo-1,2,3,5,6,7,8,9,10,11,13a,14,14a,15,16,16a-hexadecahydrocyclopropa[e]pyrrolo[1,2-a][1,4]diazacyclopentadecin-6-yl)carbamate]",EC50,[1]; [5],1.01 to 5 nM
same,EC50,[2]; [6],0.51 to 1 nM
"COc1ccc2c(O[C@@H]3C[C@H]4C(=O)N[C@]5(C(=O)NS(=O)(=O)C6(CF)CC6)C[C@H]5/C=C\CC[C@@H](C)C[C@@H](C)[C@H](NC(=O)OC(C)(C)C)C(=O)N4C3)nc(N3CCCC3)nc2c1 [Compound 3014, tert-butyl ((2R,6S,7R,9R,13aS,14aR,16aS,Z)-14a-(((1-(fluoromethyl)cyclopropyl)sulfonyl)carbamoyl)-2-((7-methoxy-2-(pyrrolidin-1-yl)quinazolin-4-yl)oxy)-7,9-dimethyl-5,16-dioxo-1,2,3,5,6,7,8,9,10,11,13a,14,14a,15,16,16a-hexadecahydrocyclopropa[e]pyrrolo[1,2-a][1,4]diazacyclopentadecin-6-yl)carbamate]",EC50,[1]; [3],4.82 to 103 nM
same,EC50,[2]; [4],< 5.46 nM
"COc1cnc(O[C@@H]2C[C@H]3C(=O)N[C@]4(C(=O)NS(=O)(=O)C5(CF)CC5)C[C@H]4/C=C\CC[C@@H](C)C[C@@H](C)[C@H](NC(=O)OC(C)(C)C)C(=O)N3C2)c2cc(F)ccc12 [Compound 4082, tert-butyl (2R,6S,7R,9R,13aS,14aR,16aS,Z)-2-(7-fluoro-4-methoxyisoquinolin-1-yloxy)-14a-(1-(fluoromethyl)cyclopropylsulfonylcarbamoyl)-7,9-dimethyl-5,16-dioxo-1,2,3,5,6,7,8,9,10,11,13a,14,14a,15,16,16a-hexadecahydrocyclopropa[e]pyrrolo[1,2-a][1,4]diazacyclopentadecin-6-ylcarbamate]",EC50,[1]; [5],< 5.46 nM
same,EC50,[2]; [6],< 5.46 nM
"CC(C)n1nc(O[C@@H]2C[C@H]3C(=O)N[C@]4(C(=O)NS(=O)(=O)C5CC5)C[C@H]4/C=C\CC[C@@H](C)C[C@@H](C)[C@H](NC(=O)OC(C)(C)C)C(=O)N3C2)c2ccccc2c1=O [Compound 1002, tert-butyl ((2R,6S,7R,9R,13aS,14aR,16aS,Z)-14a-((cyclopropylsulfonyl)carbamoyl)-2-((3-isopropyl-4-oxo-3,4-dihydrophthalazin-1-yl)oxy)-7,9-dimethyl-5,16-dioxo-1,2,3,5,6,7,8,9,10,11,13a,14,14a,15,16,16a-hexadecahydrocyclopropa[e]pyrrolo[1,2-a][1,4]diazacyclopentadecin-6-yl)carbamate]",EC50,[1]; [3],> 87.4 nM
same,EC50,[2]; [4],4.82 to 103 nM
"COc1cnc(O[C@@H]2C[C@H]3C(=O)N[C@]4(C(=O)NS(=O)(=O)C5(CF)CC5)C[C@H]4/C=C\CC[C@H](C)C[C@@H](C)[C@H](NC(=O)OC4(C)CCCOC4)C(=O)N3C2)c2ccccc12 (stereo partly drawn) [Compound 1055, 3-methyltetrahydro-2H-pyran-3-yl((2R,6S,7R,9S,13aS,14aR,16aS,Z)-14a-(((1-(fluoromethyl)cyclopropyl)sulfonyl)carbamoyl)-2-((4-methoxyisoquinolin-1-yl)oxy)-7,9-dimethyl-5,16-dioxo-1,2,3,5,6,7,8,9,10,11,13a,14,14a,15,16,16a-hexadecahydrocyclopropa[e]pyrrolo[1,2-a][1,4]diazacyclopentadecin-6-yl)carbamate]",EC50,[1]; [3],< 5.46 nM
same,EC50,[2]; [4],< 5.46 nM
COc1cc2ccnc(O[C@@H]3C[C@H]4C(=O)N[C@]5(C(=O)NS(=O)(=O)C6(CF)CC6)C[C@H]5/C=C\CC[C@H](C)C[C@@H](C)[C@H](NC(=O)OC5(C(F)(F)F)CCCCO5)C(=O)N4C3)c2cc1F (stereo partly shown) [Compound 1191],EC50,[1]; [7],5.01 to 35 nM
same,EC50,[2]; [8],5.01 to 35 nM
COc1ccc2c(O[C@@H]3C[C@H]4C(=O)N[C@]5(C(=O)NS(=O)(=O)C6(C)CC6)C[C@H]5/C=C\CC[C@@H](C)C[C@@H](C)[C@H](NC(=O)OC(C)(C)C(F)(F)F)C(=O)N4C3)ncc(-c3ccc(OC)nc3)c2c1 [Compound 4178],EC50,[1]; [7],< 5.46 nM
same,EC50,[2]; [8],< 5.46 nM
